Experimental data published in article PMC5826244 (OncoTargets and therapy, 2018).

Assays:
[1] = system: LH-RH-I receptors expressed in rat pituitaries; details: cited from earlier work
[2] = molecular target: T1, LH-RH-I receptors, membranes of human UM models (Homo sapiens, UniProt P30968); experiment: Radioligand binding / ligand competition, human UM samples; details: increasing concentrations 10^−12–10^−6 M; data not shown
T1 sequence (P30968 1-328): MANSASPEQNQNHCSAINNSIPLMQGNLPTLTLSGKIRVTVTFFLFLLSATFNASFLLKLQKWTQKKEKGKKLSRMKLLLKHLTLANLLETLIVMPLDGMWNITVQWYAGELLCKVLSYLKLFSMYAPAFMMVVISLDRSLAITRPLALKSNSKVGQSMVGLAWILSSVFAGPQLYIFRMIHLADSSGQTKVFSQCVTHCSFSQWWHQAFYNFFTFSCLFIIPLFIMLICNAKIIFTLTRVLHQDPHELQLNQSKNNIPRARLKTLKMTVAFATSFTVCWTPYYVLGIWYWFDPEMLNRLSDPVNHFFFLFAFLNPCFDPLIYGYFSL

For [^125I][D-Trp[6]]LH-RH, the “binding affinity to LH-RH-I receptors” value [1] is given as “high affinity binding”.

For buserelin, the “displacement of radiolabeled [D-Trp6]LH-RH binding” value [2] was “completely displaced”.
